Experimental data reported in the NIST ThermoML archive (doi:10.1021/je060247x).

Conditions: Liquid

CCCCn1cc[n+](C)c1C.F[P-](F)(F)(F)(F)F [1-butyl-2,3-dimethylimidazolium hexafluorophosphate]
mass density [kg/m3]
Conditions | 313.15 K | 323.15 K | 333.15 K | 343.15 K | 353.15 K | 363.15 K | 373.15 K | 383.15 K | 393.15 K
100 kPa | 1339.6 | 1330.9 | 1321.9 | 1313.5 | 1305.4 | 1297.6 | 1290.6 | 1283.4 | 1276.1
1000 kPa | 1340 | 1331.4 | 1322.4 | 1314.1 | 1306 | 1298.2 | 1291.2 | 1284 | 1276.8
2000 kPa | 1340.7 | 1331.9 | 1323 | 1314.6 | 1306.6 | 1298.8 | 1291.9 | 1284.7 | 1277.4
3000 kPa | 1341.2 | 1332.5 | 1323.5 | 1315.2 | 1307.2 | 1299.4 | 1292.5 | 1285.3 | 1278.1
4000 kPa | 1341.6 | 1333.1 | 1324.1 | 1315.8 | 1307.8 | 1300.1 | 1293.2 | 1286 | 1278.8
5000 kPa | 1342.1 | 1333.6 | 1324.6 | 1316.3 | 1308.3 | 1300.7 | 1293.8 | 1286.6 | 1279.4
10000 kPa | 1344.6 | 1336.2 | 1327.2 | 1319.1 | 1311.1 | 1303.6 | 1296.7 | 1289.7 | 1282.6

CCCCn1cc[n+](C)c1.F[B-](F)(F)F [1-butyl-3-methylimidazolium tetrafluoroborate]
mass density [kg/m3]
Conditions | 100 kPa | 1000 kPa | 2000 kPa | 3000 kPa | 4000 kPa | 5000 kPa | 10000 kPa
293.15 K | 1206.9 | 1207.3 | 1207.7 | 1208.2 | 1208.7 | 1209.1 | 1211.3
303.15 K | 1198.6 | 1199.1 | 1199.6 | 1200.1 | 1200.7 | 1201.1 | 1203.5
313.15 K | 1190.8 | 1191.3 | 1191.8 | 1192.2 | 1192.7 | 1193.2 | 1195.5
323.15 K | 1183 | 1183.5 | 1184 | 1184.5 | 1185 | 1185.5 | 1187.8
333.15 K | 1175.8 | 1176.3 | 1176.9 | 1177.4 | 1177.9 | 1178.4 | 1181
343.15 K | 1168.4 | 1168.9 | 1169.3 | 1169.8 | 1170.3 | 1170.8 | 1173.1
353.15 K | 1161.3 | 1161.8 | 1162.4 | 1163 | 1163.5 | 1164.1 | 1166.6
363.15 K | 1154.7 | 1155.3 | 1155.8 | 1156.4 | 1156.9 | 1157.5 | 1160.1
373.15 K | 1148.2 | 1148.8 | 1149.3 | 1149.9 | 1150.4 | 1151 | 1153.6
383.15 K | 1142 | 1142.5 | 1143.1 | 1143.7 | 1144.3 | 1144.8 | 1147.6
393.15 K | 1136.1 | 1136.7 | 1137.3 | 1137.9 | 1138.4 | 1139 | 1141.9

CCCCn1cc[n+](C)c1.O=S(=O)([O-])C(F)(F)F [1-butyl-3-methylimidazolium trifluoromethanesulfonate]
mass density [kg/m3]
Conditions | 100 kPa | 1000 kPa | 2000 kPa | 3000 kPa | 4000 kPa | 5000 kPa | 10000 kPa
293.15 K | 1306.1 | 1306.6 | 1307.1 | 1307.7 | 1308.2 | 1308.8 | 1311.5
303.15 K | 1296.6 | 1297.1 | 1297.7 | 1298.3 | 1298.9 | 1299.5 | 1302.3
313.15 K | 1287.6 | 1288.1 | 1288.7 | 1289.3 | 1289.9 | 1290.5 | 1293.3
323.15 K | 1278.7 | 1279.3 | 1280 | 1280.7 | 1281.3 | 1282 | 1285
333.15 K | 1270.5 | 1271.1 | 1271.7 | 1272.4 | 1273.1 | 1273.8 | 1276.9
343.15 K | 1262.5 | 1263.1 | 1263.8 | 1264.5 | 1265.2 | 1265.8 | 1269.1
353.15 K | 1254 | 1254.7 | 1255.3 | 1256 | 1256.7 | 1257.4 | 1260.7
363.15 K | 1246.8 | 1247.5 | 1248.3 | 1249 | 1249.7 | 1250.4 | 1253.8
373.15 K | 1239.6 | 1240.3 | 1241.1 | 1241.8 | 1242.5 | 1243.2 | 1246.6
383.15 K | 1232.4 | 1233.1 | 1233.9 | 1234.6 | 1235.4 | 1236.1 | 1239.7
393.15 K | 1225.3 | 1226.1 | 1226.8 | 1227.6 | 1228.4 | 1229.1 | 1232.7

CCCCCCn1cc[n+](C)c1.F[P-](F)(F)(F)(F)F [1-hexyl-3-methylimidazolium hexafluorophosphate]
mass density [kg/m3]
Conditions | 100 kPa | 1000 kPa | 2000 kPa | 3000 kPa | 4000 kPa | 5000 kPa | 10000 kPa
293.15 K | 1299.8 | 1300.3 | 1300.8 | 1301.4 | 1301.9 | 1302.4 | 1304.9
303.15 K | 1290.6 | 1291.1 | 1291.7 | 1292.2 | 1292.7 | 1293.2 | 1295.8
313.15 K | 1281.5 | 1282 | 1282.6 | 1283.1 | 1283.7 | 1284.3 | 1287
323.15 K | 1272.7 | 1273.2 | 1273.9 | 1274.5 | 1275 | 1275.6 | 1278.5
333.15 K | 1264.2 | 1264.8 | 1265.4 | 1266 | 1266.6 | 1267.3 | 1270.3
343.15 K | 1256.1 | 1256.7 | 1257.3 | 1258 | 1258.6 | 1259.2 | 1262
353.15 K | 1248 | 1248.6 | 1249.2 | 1249.9 | 1250.5 | 1251.2 | 1254.2
363.15 K | 1240.6 | 1241.2 | 1242 | 1242.6 | 1243.3 | 1244 | 1247.2
373.15 K | 1233.4 | 1234.1 | 1234.9 | 1235.6 | 1236.3 | 1237 | 1240.3
383.15 K | 1226.4 | 1227.2 | 1227.9 | 1228.7 | 1229.4 | 1230.1 | 1233.6
393.15 K | 1219.4 | 1220.1 | 1220.9 | 1221.7 | 1222.5 | 1223.3 | 1227

CCCCCCCC[n+]1ccn(C)c1.F[B-](F)(F)F [1-methyl-3-octylimidazolium tetrafluoroborate]
mass density [kg/m3]
Conditions | 100 kPa | 1000 kPa | 2000 kPa | 3000 kPa | 4000 kPa | 5000 kPa | 10000 kPa
293.15 K | 1108.7 | 1109.1 | 1109.6 | 1110 | 1110.5 | 1110.9 | 1113.1
303.15 K | 1100.7 | 1101.1 | 1101.6 | 1102.1 | 1102.6 | 1103.1 | 1105.4
313.15 K | 1092.9 | 1093.4 | 1093.9 | 1094.4 | 1094.9 | 1095.4 | 1097.9
323.15 K | 1085.4 | 1085.9 | 1086.4 | 1087 | 1087.5 | 1088 | 1090.6
333.15 K | 1078.2 | 1078.7 | 1079.3 | 1079.8 | 1080.3 | 1080.9 | 1083.5
343.15 K | 1071.4 | 1072 | 1072.5 | 1073.1 | 1073.7 | 1074.2 | 1076.9
353.15 K | 1064.7 | 1065.2 | 1065.8 | 1066.4 | 1067 | 1067.6 | 1070.3
363.15 K | 1058.6 | 1059.1 | 1059.8 | 1060.4 | 1061 | 1061.6 | 1064.4
373.15 K | 1052.4 | 1053 | 1053.7 | 1054.3 | 1054.9 | 1055.5 | 1058.5
383.15 K | 1046.6 | 1047.2 | 1047.9 | 1048.5 | 1049.2 | 1049.8 | 1052.9
393.15 K | 1040.9 | 1041.5 | 1042.1 | 1042.8 | 1043.4 | 1044.1 | 1047.2

CCCCCCCC[n+]1ccn(C)c1.F[P-](F)(F)(F)(F)F [1-octyl-3-methylimidazolium hexafluorophosphate]
mass density [kg/m3]
Conditions | 100 kPa | 1000 kPa | 2000 kPa | 3000 kPa | 4000 kPa | 5000 kPa | 10000 kPa
293.15 K | 1242.4 | 1242.9 | 1243.5 | 1244.1 | 1244.6 | 1245.1 | 1247.8
303.15 K | 1233.8 | 1234.4 | 1235 | 1235.6 | 1236.1 | 1236.7 | 1239.5
313.15 K | 1225.3 | 1225.9 | 1226.5 | 1227.1 | 1227.7 | 1228.3 | 1231.1
323.15 K | 1217.6 | 1218.2 | 1218.8 | 1219.4 | 1220 | 1220.6 | 1223.4
333.15 K | 1209.1 | 1209.7 | 1210.3 | 1211 | 1211.6 | 1212.2 | 1215.1
343.15 K | 1201 | 1201.6 | 1202.3 | 1203 | 1203.6 | 1204.3 | 1207.4
353.15 K | 1193.6 | 1194.3 | 1195 | 1195.7 | 1196.3 | 1197.1 | 1200.3
363.15 K | 1186.2 | 1186.9 | 1187.6 | 1188.3 | 1189 | 1189.7 | 1193
373.15 K | 1179.2 | 1179.9 | 1180.6 | 1181.3 | 1182 | 1182.7 | 1186.1
383.15 K | 1172.7 | 1173.5 | 1174.2 | 1174.9 | 1175.6 | 1176.3 | 1179.8
393.15 K | 1166 | 1166.8 | 1167.5 | 1168.3 | 1169.1 | 1169.8 | 1173.5
